Assays:
[1] = tested on: Rat; test: concentration in liver after dosing; conditions: 12 h; dosed: Potassium Perfluorobutane Sulfonate; 20 mg/kg; oral; Male; Harlan Sprague Dawley
[2] = tested on: Rat; test: concentration in liver after dosing; conditions: 1 h; dosed: Potassium Perfluorobutane Sulfonate; 20 mg/kg; oral; Male; Harlan Sprague Dawley
[3] = tested on: Rat; test: concentration in plasma after dosing; conditions: 1 h; dosed: Potassium Perfluorobutane Sulfonate; 4 mg/kg; iv; Male; F344
[4] = tested on: Rat; test: concentration in brain after dosing; conditions: 0.5 h; dosed: Potassium Perfluorobutane Sulfonate; 20 mg/kg; oral; Female; Harlan Sprague Dawley
[5] = tested on: Rat; test: concentration in kidney after dosing; conditions: 0.5 h; dosed: Potassium Perfluorobutane Sulfonate; 20 mg/kg; oral; Female; Harlan Sprague Dawley
[6] = tested on: rat; test: concentration in lung after dosing (ugEq/g tissue); conditions: dosed: benzo[a]pyrene, iv, male, Wistar
[7] = tested on: Mouse; test: concentration in plasma after dosing; conditions: dosed: 2-Hydroxy-4-methoxybenzophenone, 100 mg/kg, oral, Female, B6C3F1
[8] = tested on: Rat; test: concentration in plasma after dosing; conditions: dosed: 2-Hydroxy-4-methoxybenzophenone, 8 mg/kg, iv, Male, F344
[9] = tested on: Mouse; test: concentration in plasma after dosing; conditions: 2 h; dosed: 2-Hydroxy-4-methoxybenzophenone; 250 mg/kg; oral; Female; B6C3F1
[10] = tested on: Rat; test: concentration in plasma after dosing; conditions: dosed: 2-Hydroxy-4-methoxybenzophenone, 100 mg/kg, oral, Female, F344
[11] = tested on: Rat; test: concentration in plasma after dosing; conditions: 0.25 h; dosed: 2-Hydroxy-4-methoxybenzophenone; 500 mg/kg; oral; Male; F344
[12] = tested on: Rat; test: concentration in plasma after dosing; conditions: dosed: 2-Hydroxy-4-methoxybenzophenone, 500 mg/kg, oral, Female, F344
[13] = tested on: Rat; test: concentration in plasma after dosing; conditions: 2.5 min; dosed: 2-Hydroxy-4-methoxybenzophenone; 500 mg/kg; oral; Female; F344
[14] = tested on: Rat; test: concentration in plasma after dosing; conditions: 0.25 h; dosed: 2-Hydroxy-4-methoxybenzophenone; 500 mg/kg; oral; Female; F344
[15] = tested on: Rat; test: concentration in plasma after dosing; conditions: dosed: 2-Hydroxy-4-methoxybenzophenone, 250 mg/kg, oral, Female, F344
[16] = tested on: Rat; test: concentration in kidney after dosing; conditions: 192 h; dosed: Perfluorooctanoic acid; 12 mg/kg; oral; Male; Harlan Sprague Dawley
[17] = tested on: Rat; test: concentration in kidney after dosing; conditions: 3 h; dosed: Fluorotelomer alcohol 8+2; 80 mg/kg; oral; Female; Harlan Sprague Dawley
[18] = tested on: Rat; test: concentration in kidney after dosing; conditions: 48 h; dosed: Perfluorooctanoic acid; 80 mg/kg; oral; Female; Harlan Sprague Dawley
[19] = tested on: Rat; test: concentration in liver after dosing; conditions: 6 h; dosed: Fluorotelomer alcohol 8+2; 80 mg/kg; oral; Female; Harlan Sprague Dawley
[20] = tested on: Rat; test: concentration in brain after dosing; conditions: 6 h; dosed: Perfluorooctanoic acid; 80 mg/kg; oral; Female; Harlan Sprague Dawley
[21] = tested on: Rat; test: concentration in liver after dosing; conditions: 3 h; dosed: Fluorotelomer alcohol 8+2; 24 mg/kg; oral; Male; Harlan Sprague Dawley
[22] = tested on: Rat; test: concentration in kidney after dosing; conditions: 3 h; dosed: Fluorotelomer alcohol 8+2; 80 mg/kg; oral; Female; Harlan Sprague Dawley; remark: listed apart in the source
[23] = tested on: Rat; test: concentration in kidney after dosing; conditions: 24 h; dosed: Perfluorooctanoic acid; 12 mg/kg; oral; Male; Harlan Sprague Dawley
[24] = tested on: Rat; test: concentration in plasma after dosing; conditions: dosed: 678-39-7, 40 mg/kg, iv, Male, F344
[25] = tested on: Rat; test: concentration in kidney after dosing; conditions: 1 h; dosed: Fluorotelomer alcohol 8+2; 80 mg/kg; oral; Female; Harlan Sprague Dawley
[26] = tested on: Rat; test: concentration in plasma after dosing; conditions: 10 min; dosed: Nitrite; 80 mg/kg; oral; Female; F344
[27] = tested on: Rat; test: concentration in plasma after dosing; conditions: 5 min; dosed: Nitrite; 80 mg/kg; oral; Female; F344
[28] = tested on: Rat; test: concentration in plasma after dosing; conditions: 10 min; dosed: Nitrite; 40 mg/kg; oral; Female; F344

O=S(=O)([O-])C(F)(F)C(F)(F)C(F)(F)C(F)(F)F.[K+] [Potassium Perfluorobutane Sulfonate]
Conditions	concentration in brain [ng/g]	concentration in kidney [ng/g]	concentration in liver [ng/g]	concentration in plasma [ng/mL]
[1]	–	–	10100	–
[2]	–	–	100000	–
[3]	–	–	–	20200
[4]	518	–	–	–
[5]	–	23200	–	–

c1ccc2c(c1)cc1ccc3cccc4ccc2c1c34 [benzo[a]pyrene]
concentration in lung, [6]
Conditions	2 mg/kg	6 mg/kg	15 mg/kg
0.5 h	1.06	16	25.8
0.75 h	2.68	5.85	13.7
1 h	2.4	2.76	17
1.5 h	1.07	5.3	38.5
2 h	14.7	5.84	37
3 h	0.34	0.4	7.07
4 h	0.04	2.64	22.4
5 h	0.68	12.4	33.2
5 min	5.17	33.9	46
6 h	0.06	6.27	22.6
8 h	9.32	5.09	18.4
10 min	1.31	13.6	26.1
20 min	2.8	17.3	23.4
24 h	–	–	10.2
32 h	–	3.9	15.7

COc1ccc(C(=O)c2ccccc2)c(O)c1 [2-Hydroxy-4-methoxybenzophenone]
Conditions	concentration in plasma [µg/mL]
[7], 0.25 h	0.151
[7], 2 h	0.0139
[7], 2.5 min	0.0296
[7], 3 h	0.00913
[7], 10 min	0.0623
[8], 0.25 h	1.95
[8], 2 h	0.0846
[10], 3 h	0.00719
[10], 10 min	0.0382
[12], 2.5 min	0.0473
[12], 4 h	0.24
[15], 3 h	0.0816
[15], 10 min	0.013

Conditions	concentration in plasma [µg/mL]
[9]	0.0556
[11]	0.902
[13]	0.0128
[14]	0.619

O=C(O)C(F)(F)C(F)(F)C(F)(F)C(F)(F)C(F)(F)C(F)(F)C(F)(F)F [Perfluorooctanoic acid]
Conditions	concentration in brain [ng/g]	concentration in kidney [ng/g]	concentration in liver [ng/g]
[16]	–	21000	–
[17]	–	2070	–
[18]	–	703	–
[19]	–	–	1430
[20]	3290	–	–
[21]	–	–	1440
[22]	–	2010	–
[23]	–	29700	–
[25]	–	568	–

[24]
Conditions	concentration in plasma [ng/mL]
0.5 h	219000
3 h	1660
12 h	28000

O=N[O-] [Nitrite]
Conditions	concentration in plasma [µg/mL]
[26]	31.8
[27]	8.2
[28]	26.6

Source: EPA's CvTdb concentration-time database
